How the values were obtained:
[1] = tested on: antibodies in sera from SARS patients (sera 1a, 1b, 2, 6, 37, 62, London, SARS-yellow, SARS-green); type: binding, human; parameters: Binding of serum 6 to linear peptides of protein X1 of SARS-CoV Urbani / Binding of serum 37 to linear peptides of protein X1 of SARS-CoV Urbani / Binding of serum 6 to looped/cyclic peptide (PEPSCAN-ELISA) / Binding of serum 37 to looped/cyclic peptide (PEPSCAN-ELISA) / Binding of serum 37 to looped/cyclic peptides of protein X1 of SARS-CoV Urbani / Binding of serum 6 to linear peptides of protein X2 / Binding of serum 37 to linear peptides of protein X2 / Binding of serum 37 to looped/cyclic peptides of protein X2 of SARS-CoV Urbani / Binding of serum 6 to linear peptides of protein M of SARS-CoV Urbani / Binding of serum 37 to linear peptides of protein M of SARS-CoV Urbani / Binding of serum 6 to looped/cyclic peptides of protein M of SARS-CoV Urbani / Binding of serum 37 to looped/cyclic peptides of protein M of SARS-CoV Urbani / Binding of serum 6 to linear peptides of protein X3 of SARS-CoV Urbani / Binding of serum 37 to linear peptides of protein X3 of SARS-CoV Urbani / Binding of serum 37 to looped/cyclic peptides of protein X3 of SARS-CoV Urbani / Binding of serum 6 to linear peptides of protein X4 of SARS-CoV Urbani / Binding of serum 37 to linear peptides of protein X4 of SARS-CoV Urbani / Binding of serum 37 to looped/cyclic peptides of protein X4 of SARS-CoV Urbani / Binding of serum 6 to linear peptides of protein X5 of SARS-CoV Urbani / Binding of serum 37 to linear peptides of protein X5 of SARS-CoV Urbani / Binding of serum 37 to looped/cyclic peptides of protein X5 of SARS-CoV Urbani / Binding of serum 6 to linear peptides of protein N of SARS-CoV Urbani / Binding of serum 37 to linear peptides of protein N of SARS-CoV Urbani / Binding of serum 6 to linear peptide (PEPSCAN-ELISA) / Binding of serum 1a to looped/cyclic peptides of protein N of SARS-CoV Urbani / Binding of serum 1b to looped/cyclic peptides of protein N of SARS-CoV Urbani / Binding of serum 2 to looped/cyclic peptides of protein N of SARS-CoV Urbani / Binding of serum 6 to looped/cyclic peptides of protein N of SARS-CoV Urbani / Binding of serum 37 to looped/cyclic peptides of protein N of SARS-CoV Urbani / Binding of serum 62 to looped/cyclic peptides of protein N of SARS-CoV Urbani / Binding of serum London to looped/cyclic peptides of protein N of SARS-CoV Urbani / Binding of serum SARS-green to looped/cyclic peptides of protein N of SARS-CoV Urbani: unit not given here
[2] = tested on: control sera (pooled serum of ten healthy LUMC hospital workers; commercial negative donor pooled serum from the Dutch bloodbank); type: binding, human; parameters: Binding of Control serum LUMC to linear peptides / Binding of Control serum Blood-bank to linear peptides / Binding of Control serum LUMC to looped peptides / Binding of Control Serum Blood-Bank to Looped peptides / Binding of Control serum LUMC to linear peptides of the protein M of SARS-CoV Urbani / Binding of Control serum Blood-bank to linear peptides of the protein M of SARS-CoV Urbani / Binding of Control serum LUMC to looped peptides of the protein M of SARS-CoV Urbani / Binding of Control Serum Blood-Bank to Looped peptides of the protein M of SARS-CoV Urbani: unit not given here
[3] = tested on: rabbit serum obtained by immunizing a rabbit with the SARS-CoV strain Frankfurt 1; type: binding; parameters: Binding of a rabbit serum to linear peptides / Binding of a rabbit serum to looped peptides / Rabbit serum linear peptides / Rabbit serum looped peptides / Binding of a rabbit serum to linear peptides of protein N of SARS-CoV Urbani (Rabbit serum linear peptides) / Binding of a rabbit serum to looped/cyclic peptides of protein N of SARS-CoV Urbani (Rabbit serum looped peptides): unit not given here
[4] = tested on: recombinant human anti-SARS-CoV antibody 03-018; type: binding; parameters: Binding of antibody 03-018 to linear peptides of the N protein of SARS-CoV Urbani / Binding of antibody 03-018 to looped/cyclic peptides of the N protein of SARS-CoV Urbani: unit not given here

Sequence	Binding of serum 1a to linear peptides of protein N of SARS-CoV Urbani [1]	Binding of serum 1a to looped/cyclic peptides of protein N of SARS-CoV Urbani [1]	Binding of serum 1b to linear peptides of protein N of SARS-CoV Urbani [1]	Binding of serum 1b to looped/cyclic peptides of protein N of SARS-CoV Urbani [1]	Binding of serum 2 to linear peptides of protein N of SARS-CoV Urbani [1]	Binding of serum 2 to looped/cyclic peptides of protein N of SARS-CoV Urbani [1]	Binding of serum 6 to linear peptides of protein N of SARS-CoV Urbani [1]	Binding of serum 6 to looped/cyclic peptides of protein N of SARS-CoV Urbani [1]	Binding of serum 37 to linear peptides of protein N of SARS-CoV Urbani [1]	Binding of serum 37 to looped/cyclic peptides of protein N of SARS-CoV Urbani [1]	Binding of serum 62 to linear peptides of protein N of SARS-CoV Urbani [1]	Binding of serum 62 to looped/cyclic peptides of protein N of SARS-CoV Urbani [1]	Binding of serum London to linear peptides of protein N of SARS-CoV Urbani [1]	Binding of serum London to looped/cyclic peptides of protein N of SARS-CoV Urbani [1]	Binding of serum SARS-green to looped/cyclic peptides of protein N of SARS-CoV Urbani [1]	Binding of serum SARS-yellow to looped/cyclic peptides of protein N of SARS-CoV Urbani [1]	Binding of a rabbit serum to linear peptides of protein N of SARS-CoV Urbani (Rabbit serum linear peptides) [3]	Binding of a rabbit serum to looped/cyclic peptides of protein N of SARS-CoV Urbani (Rabbit serum looped peptides) [3]	Binding of antibody 03-018 to linear peptides of the N protein of SARS-CoV Urbani [4]	Binding of antibody 03-018 to looped/cyclic peptides of the N protein of SARS-CoV Urbani [4]	other results
SAFFGMSRIGMEVTP	0.3	0.4	0.2	0.3	0.2	0.4	0.2	0.2	0.7	0.5	0.8	0.4	0.6	0.4	0.4	0.5	0.2	0.5	0.1	0.2	Binding of serum SARS-green to linear peptides of protein N of SARS-CoV Urbani [1]: 0.3; Binding of serum SARS-yellow to linear peptides of protein N of SARS-CoV Urbani [1]: 0.7; Control Serum Blood-Bank Looped peptides [2]: 0.6; Control serum Blood-bank linear peptides [2]: 0.8; Control serum LUMC linear peptides [2]: 0.7; Control serum LUMC looped peptides [2]: 0.5
RNPNNNAATVLQLPQ	0.2	0.4	0.1	0.4	0.3	0.7	0.2	0.3	0.6	0.8	0.7	0.9	0.5	0.6	0.6	0.4	0.1	0.8	0.1	0.2	Binding of serum SARS-green to linear peptides of protein N of SARS-CoV Urbani [1]: 0.3; Binding of serum SARS-yellow to linear peptides of protein N of SARS-CoV Urbani [1]: 0.6; Binding of Control Serum Blood-Bank to Looped peptides [2]: 0.8; Binding of Control serum Blood-bank to linear peptides [2]: 0.7; Binding of Control serum LUMC to linear peptides [2]: 0.7; Binding of Control serum LUMC to looped peptides [2]: 0.9
GNSRNSTPGSSRGNS	–	0.6	–	0.5	–	0.4	–	0.4	–	0.5	–	0.5	–	0.3	0.1	0.5	0.2	0.8	0.1	0.2	Binding of serum 1a to linear peptide (PEPSCAN-ELISA) [1]: 0.7; Binding of serum 1b to linear peptide (PEPSCAN-ELISA) [1]: 0.5; Binding of serum 2 to linear peptide (PEPSCAN-ELISA) [1]: 0.2; Binding of serum 6 to linear peptide (PEPSCAN-ELISA) [1]: 0.2; Binding of serum 37 to linear peptide (PEPSCAN-ELISA) [1]: 0.7; Binding of serum 62 to linear peptide (PEPSCAN-ELISA) [1]: 0.7; Binding of serum London to linear peptide (PEPSCAN-ELISA) [1]: 0.5; Binding of serum SARS-green to linear peptide (PEPSCAN-ELISA) [1]: 0.2; Binding of serum SARS-yellow to linear peptide (PEPSCAN-ELISA) [1]: 0.7; Binding of Control Serum Blood-Bank to Looped peptides [2]: 0.6; Binding of Control serum Blood-bank to linear peptides [2]: 0.8; Binding of Control serum LUMC to linear peptides [2]: 0.7; Binding of Control serum LUMC to looped peptides [2]: 0.7
FGGPTDSTDNNQNGG	0.3	0.2	0.1	0.1	0.1	0.2	0.1	0.1	0.6	0.4	0.5	0.2	0.5	0.2	0.3	0.1	0.0	0.1	0.1	0.2	Binding of serum SARS-green to linear peptides of protein N of SARS-CoV Urbani [1]: 0.0; Binding of serum SARS-yellow to linear peptides of protein N of SARS-CoV Urbani [1]: 0.5; Binding of Control Serum Blood-Bank to Looped peptides [2]: 0.4; Binding of Control serum Blood-bank to linear peptides [2]: 0.6; Binding of Control serum LUMC to linear peptides [2]: 0.5; Binding of Control serum LUMC to looped peptides [2]: 0.4
